# Experimental data as given in US12233161B1, “Lipids and lipid nanoparticle formulations” (LONGUIDE BIOPHARMA CORPORATION, priority 2024, dated 2025).
# How the values were obtained:
# mice = assay: In vivo delivery of FLuc-mRNA lipid nanoparticles in mice, in vivo imaging (IVIS); settings: for IVIS: Fluc-mRNA
# In short: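 Mice (n=3) received about 75 μL FLuc-mRNA LNP per mouse intramuscularly (rectus femoris), intravenously (tail vein), intraperitoneally or subcutaneously (back). After injection, D-luciferin (200 μL, 15 mg/mL) was given i.p. 10-15 min before IVIS imaging.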
# [1] = Particle size and PDI of nucleic acid lipid nanoparticle preparations by dynamic light scattering; type: physicochemical
# In short: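 LNP solution (about 0.04 mg/mL mRNA before dilution) was diluted in ultrapure water and mixed by gentle pipetting. Particle size and PDI were then measured by dynamic light scattering.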
# [2] = IM, DMG-PEG2000:DSPC:Chol:compound 1.40:11.15:38.95:48.50, N/P 20
# [3] = IV, organ not given, DMG-PEG2000:DSPC:Chol:compound 1.40:11.15:38.95:48.50, N/P 20
# [4] = DMG-PEG2000:DSPC:Chol:compound 1.40:11.15:38.95:48.50, N/P 20
# [5] = IV, body, DMG-PEG2000:DSPC:Chol:compound 1.40:11.15:38.95:48.50, N/P 20
# [6] = IV, liver, DMG-PEG2000:DSPC:Chol:compound 1.40:11.15:38.95:48.50, N/P 20
# [7] = IV, lung, DMG-PEG2000:DSPC:Chol:compound 1.40:11.15:38.95:48.50, N/P 20
# [8] = IV, spleen, DMG-PEG2000:DSPC:Chol:compound 1.40:11.15:38.95:48.50, N/P 20
# [9] = IM, DMG-PEG2000:DSPC:Chol:compound 1.40:11.15:38.95:48.50, N/P 30
# [10] = IV, organ not given, DMG-PEG2000:DSPC:Chol:compound 1.40:11.15:38.95:48.50, N/P 30
# [11] = DMG-PEG2000:DSPC:Chol:compound 1.40:11.15:38.95:48.50, N/P 30
# [12] = IV, liver, DMG-PEG2000:DSPC:Chol:compound 1.40:11.15:38.95:48.50, N/P 40
# [13] = IV, lung, DMG-PEG2000:DSPC:Chol:compound 1.40:11.15:38.95:48.50, N/P 40
# [14] = IV, spleen, DMG-PEG2000:DSPC:Chol:compound 1.40:11.15:38.95:48.50, N/P 40
# [15] = DMG-PEG2000:DSPC:Chol:compound 1.40:11.15:38.95:48.50, N/P 40
# [16] = IV, body, DMG-PEG2000:DSPC:Chol:compound 1.40:11.15:38.95:48.50, N/P 30
# [17] = IV, liver, DMG-PEG2000:DSPC:Chol:compound 1.40:11.15:38.95:48.50, N/P 30
# [18] = IV, lung, DMG-PEG2000:DSPC:Chol:compound 1.40:11.15:38.95:48.50, N/P 30
# [19] = IV, spleen, DMG-PEG2000:DSPC:Chol:compound 1.40:11.15:38.95:48.50, N/P 30
smiles,measurement,setting,value
CCCCCCCCCCCCNC(=O)C(O)CN(CCCCCCCN(CC(O)C(=O)NCCCCCCCCCCCC)CC(O)C(=O)NCCCCCCCCCCCC)CC(O)C(=O)NCCCCCCCCCCCC (stereo not drawn) [Compound L0308],IVIS,mice; [2],9.07E+05
same,IVIS,mice; [3],1.99E+05
same,PDI,[1]; [4],0.10
same,Particle size (nm),[1]; [4],132.67 nm
CCCCCCCCCCCCOC(=O)C(O)CN(CCOCCOCCN(CC(O)C(=O)OCCCCCCCCCCCC)CC(O)C(=O)OCCCCCCCCCCCC)CC(O)C(=O)OCCCCCCCCCCCC (stereo not drawn) [Compound L0309],IVIS,mice; [2],3.09E+06
same,IVIS,mice; [5],1.24E+06
same,% of organ targeting,mice; [6],21.49%
same,IVIS,mice; [6],5.48E+05
same,% of organ targeting,mice; [7],3.37%
same,IVIS,mice; [7],8.60E+04
same,% of organ targeting,mice; [8],75.14%
same,IVIS,mice; [8],1.91E+06
same,PDI,[1]; [4],0.11
same,Particle size (nm),[1]; [4],180.63 nm
CCCCCCCCCCCCOC(=O)C(O)CN(C)CCCN(C)CCCN(C)CC(O)C(=O)OCCCCCCCCCCCC (stereo not drawn) [Compound L0310],IVIS,mice; [9],1.53E+05
same,IVIS,mice; [10],2.77E+05
same,PDI,[1]; [11],0.22
same,Particle size (nm),[1]; [11],190.63 nm
CCCCCCCCCCCCNC(=O)C(O)CN(C)CCCN(C)CCCN(C)CC(O)C(=O)NCCCCCCCCCCCC (stereo not drawn) [Compound L0311],IVIS,mice; [9],2.23E+05
same,IVIS,mice; [10],4.57E+05
same,PDI,[1]; [11],0.16
same,Particle size (nm),[1]; [11],111.00 nm
CCCCCCCCCCCCOC(=O)C(O)CN(CCOCCN(CC(O)C(=O)OCCCCCCCCCCCC)CC(O)C(=O)OCCCCCCCCCCCC)CC(O)C(=O)OCCCCCCCCCCCC (stereo not drawn) [Compound L0312],IVIS,mice; [2],9.71E+05
same,IVIS,mice; [3],5.52E+05
same,PDI,[1]; [4],0.12
same,Particle size (nm),[1]; [4],172.73 nm
CCCCCCCCCCNC(=O)C(O)CN(CCOCCOCCN(CC(O)C(=O)NCCCCCCCCCC)CC(O)C(=O)NCCCCCCCCCC)CC(O)C(=O)NCCCCCCCCCC (stereo not drawn) [Compound L0325],IVIS,mice; [2],5.09E+06
same,IVIS,mice; [3],1.95E+07
same,PDI,[1]; [4],0.12
same,Particle size (nm),[1]; [4],94.88 nm
CCCCCCCCCCNC(=O)C(O)CN(CCOCCN(CC(O)C(=O)NCCCCCCCCCC)CC(O)C(=O)NCCCCCCCCCC)CC(O)C(=O)NCCCCCCCCCC (stereo not drawn) [Compound L0326],IVIS,mice; [2],6.75E+05
same,IVIS,mice; [3],1.02E+06
same,PDI,[1]; [4],0.14
same,Particle size (nm),[1]; [4],103.37 nm
CCCCCCCCCCNC(=O)C(O)CN(C)CCCN(C)CCCN(C)CC(O)C(=O)NCCCCCCCCCC (stereo not drawn) [Compound L0327],IVIS,mice; [9],4.85E+05
same,IVIS,mice; [10],2.98E+05
same,PDI,[1]; [11],0.18
same,Particle size (nm),[1]; [11],108.57 nm
CCCCCCCCCCCCNCC(O)CN(CCCNC(=O)CCN(CCCN(CCC(=O)NCCCN(CC(O)C(=O)NCCCCCCCCCCCC)CC(O)C(=O)NCCCCCCCCCCCC)CCC(=O)NCCCN(CC(O)C(=O)NCCCCCCCCCCCC)CC(O)C(=O)NCCCCCCCCCCCC)CCC(=O)NCCCN(CC(O)C(=O)NCCCCCCCCCCCC)CC(O)C(=O)NCCCCCCCCCCCC)CC(O)C(=O)NCCCCCCCCCCCC (stereo not drawn) [Compound L0328],IVIS,"mice; IM, DMG-PEG2000:DSPC:Chol:compound 1.40:11.15:38.95:48.50, N/P 40",9.40E+05
same,IVIS,"mice; IV, body, DMG-PEG2000:DSPC:Chol:compound 1.40:11.15:38.95:48.50, N/P 40",3.55E+07
same,% of organ targeting,mice; [12],51.92%
same,IVIS,mice; [12],5.62E+06
same,% of organ targeting,mice; [13],1.56%
same,IVIS,mice; [13],1.69E+05
same,% of organ targeting,mice; [14],46.52%
same,IVIS,mice; [14],5.04E+06
same,PDI,[1]; [15],0.11
same,Particle size (nm),[1]; [15],150.47 nm
CCCCCCOCOCCCCCCOC(=O)C(O)CN(CCOCCOCCN(CC(O)C(=O)OCCCCCCOCOCCCCCC)CC(O)C(=O)OCCCCCCOCOCCCCCC)CC(O)C(=O)OCCCCCCOCOCCCCCC (stereo not drawn) [Compound L0329],IVIS,mice; [2],4.22E+06
same,IVIS,mice; [5],3.09E+06
same,% of organ targeting,mice; [6],25.67%
same,IVIS,mice; [6],5.34E+05
same,% of organ targeting,mice; [7],5.35%
same,IVIS,mice; [7],1.11E+05
same,% of organ targeting,mice; [8],68.99%
same,IVIS,mice; [8],1.44E+06
same,PDI,[1]; [4],0.18
same,Particle size (nm),[1]; [4],158.43 nm
CCCCCCOCOCCCCCCOC(=O)C(O)CN(CCOCCN(CC(O)C(=O)OCCCCCCOCOCCCCCC)CC(O)C(=O)OCCCCCCOCOCCCCCC)CC(O)C(=O)OCCCCCCOCOCCCCCC (stereo not drawn) [Compound L0330],IVIS,mice; [2],1.35E+06
same,IVIS,mice; [5],2.05E+06
same,% of organ targeting,mice; [6],29.70%
same,IVIS,mice; [6],2.90E+05
same,% of organ targeting,mice; [7],4.48%
same,IVIS,mice; [7],4.37E+04
same,% of organ targeting,mice; [8],65.82%
same,IVIS,mice; [8],6.43E+05
same,PDI,[1]; [4],0.10
same,Particle size (nm),[1]; [4],145.77 nm
CCCCCCOCOCCCCCCOC(=O)C(O)CN(C)CCCN(C)CCCN(C)CC(O)C(=O)OCCCCCCOCOCCCCCC (stereo not drawn) [Compound L0331],IVIS,mice; [9],3.39E+06
same,IVIS,mice; [10],9.27E+05
same,PDI,[1]; [11],0.06
same,Particle size (nm),[1]; [11],122.67 nm
CCCCCCCCCCCCNCC(O)CN(CCN(CCN(CC(O)CNCCCCCCCCCCCC)CC(O)C(=O)NCCCCCCCCCCCC)CC(O)C(=O)NCCCCCCCCCCCC)CC(O)C(=O)NCCCCCCCCCCCC (stereo not drawn) [Compound L0332],IVIS,mice; [9],7.75E+05
same,IVIS,mice; [10],3.67E+05
same,PDI,[1]; [11],0.18
same,Particle size (nm),[1]; [11],150.70 nm
CCCCCCOC(C)OCCCCCCOC(=O)C(O)CN(CCN(C)CCN(CC(O)C(=O)OCCCCCCOC(C)OCCCCCC)CC(O)C(=O)OCCCCCCOC(C)OCCCCCC)CC(O)C(=O)OCCCCCCOC(C)OCCCCCC (stereo not drawn) [Compound L0333],IVIS,mice; [9],1.70E+06
same,IVIS,mice; [16],6.44E+08
same,% of organ targeting,mice; [17],74.80%
same,IVIS,mice; [17],1.29E+08
same,% of organ targeting,mice; [18],4.15%
same,IVIS,mice; [18],7.15E+06
same,% of organ targeting,mice; [19],21.05%
same,IVIS,mice; [19],3.63E+07
same,PDI,[1]; [11],0.09
same,Particle size (nm),[1]; [11],130.70 nm
CC/C=C\CCOCOCCCCCCOC(=O)C(O)CN(CCN(C)CCN(CC(O)C(=O)OCCCCCCOCOCC/C=C\CC)CC(O)C(=O)OCCCCCCOCOCC/C=C\CC)CC(O)C(=O)OCCCCCCOCOCC/C=C\CC (stereo not drawn) [Compound L0334],IVIS,mice; [9],6.25E+05
same,IVIS,mice; [16],5.29E+08
same,% of organ targeting,mice; [17],57.03%
same,IVIS,mice; [17],1.01E+08
same,% of organ targeting,mice; [18],6.95%
same,IVIS,mice; [18],1.22E+07
same,% of organ targeting,mice; [19],36.03%
same,IVIS,mice; [19],6.35E+07
same,PDI,[1]; [11],0.06
same,Particle size (nm),[1]; [11],146.13 nm
